Data on one compound can be found in article PMC12609579, “Acute Myeloid Leukemia: A Key Role of DGKα and DGKζ in Cell Viability” (Cells, 2025).

The term IC50 denotes the midpoint of a concentration-inhibition curve. The low end stands for higher potency, the high end for lower potency. By Ki is commonly meant a measure of affinity in units of concentration, obtained from inhibition or displacement.

For series [1], the system named is THP-1 cells. The experiment in a line: IPA canonical pathway analysis of differentially abundant proteins. The series is classed as cell-based, human. The settings on record: THP-1, 24 h; ritanserin 50 µM, BAY 2965501 75 µM. From the text: A Venn diagram was created to depict the overlap of differentially abundant proteins shared between the two treatments. These proteins, along with their gene symbols and log2FC values, were then used as input for IPA Core Analysis. The following filters were applied: human species and reference tissues/cells (hematopoietic progenitor cells, macrophages, monocytes, peripheral blood monocytes, and THP1 leukemic cells). The resulting Ingenuity Canonical Pathways were downloaded using standard filters and further refined to consider only those with a |Z-score| > 1. For ritanserin vs. DMSO, the top 15 most significant pathways were represented in a bar plot, while for BAY 2965501 vs. DMSO, only three significant pathways were identified and plotted.

The subject of series [2] is HEL cells. Put plainly: Annexin V-FITC/7AAD apoptosis/necrosis flow cytometry, HEL. The series is classed as cell-based, human. The settings on record: 24 h. Here is the method:
(§1) To determine the type of cell death, apoptotic and necrotic cells were detected by flow cytometry using the Apoptosis Detection Kit Annexin V-FITC (Invitrogen, Carlsbad, CA, USA). For each sample, 500,000 cells, pretreated for 24 h, were stained according to manufacturer’s instructions, using 7-aminoactinomycin D (7AAD) instead of propidium iodide. Samples were analyzed on a BD FACS Symphony A5 flow cytometer (Franklin Lakes, NJ, USA) using BD FACSDiva 9.1 software. Data were gated based on FSC-A vs. FSC-H to exclude cell doublets and FSC-A vs. SSC-A to exclude debris. Different populations were identified as: live (Annexin V− and 7AAD−), necrotic (Annexin− and 7AAD+), early apoptotic (Annexin V+ and 7AAD−) and late apoptotic (Annexin+ and 7AAD+). Data are shown as mean ± SD of at least three independent experiments analyzed by GraphPad Prism 10 (control vs. [inhibitor]).

The subject of series [3] is HL-60 cells. The experiment in a line: alamarBlue cell viability assay, HL-60. The class given is cell-based, human. Here is the method: (§2) The alamarBlue assay was performed to assess cell viability in presence of chemical inhibitors. A total of 50,000 cells per well were seeded in a 96-wells plate in a volume of 100 μL of complete medium together with 10 μL of 10× concentrated inhibitor solution and then incubated for either 24 or 72 h. Each experimental condition was performed in technical quadruplicates, using cells treated with equal amounts of DMSO vehicle as control and medium alone as background. After incubation, alamarBlue was added to each well at a final concentration of 0.15 mg/mL. The fluorescence of the samples was measured 24 h later using a Spark 10 M Multimode Plate Reader (Tecan, Switzerland) with excitation and emission wavelengths of 535 nm and 590 nm, respectively. For dose–response curve fitting, fluorescence values were normalized according to the following formula:Viability (%) = [(sample mean fluorescence)/(DMSO control mean fluorescence)] ∗ 100
(§3) Data are the results of at least five independent experiments analyzed with GraphPad Prism 10 as [inhibitor] vs. normalized response curve (variable slope, after manual outlier removal).
(In general: Resazurin is reduced to fluorescent resorufin, in cell work by metabolically active cells.)

Series [4] relates to K562 cells. Put plainly: alamarBlue cell viability assay, K562. The series is classed as cell-based, human. As to the method:
as §2, §3

Series [5] deals with Peripheral blood lymphocytes (PBLs). Put plainly: alamarBlue cell viability assay, PBLs from healthy donors. The series is classed as cell-based, human. Particulars: for IC50: Homo sapiens, Lymphocyte, PBLs from healthy donors. Here is the method:
These four cell lines were employed in this study as in vitro models of AML, cell line identity was verified through a Cell Line Authentication Test conducted by Eurofins Genomics (Ebersberg, Germany) or by the internal university service. The resulting markers matched 100% with those reported in the ATCC database. […] L. Manzoli (Bologna, Italy), is reported as K562-related, differing from K526 by a single marker. Cells were cultured in RPMI-1640 medium (ThermoFisher Scientific, Waltham, MA, USA) supplemented with 10% heat-inactivated fetal bovine serum (FBS) and 1% penicillin-streptomycin, following the handling protocols provided by ATCC (Manassas, VA, USA). Additionally, healthy donor blood samples were provided by the UPO biobank under approved Ethical Committee authorization (Comitato Etico Interaziendale A.O.U. Maggiore della Carità 865/CE-CE206/2022 date 24 October 2022) and with informed consent for research use. Peripheral blood mononuclear cells were isolated by density gradient centrifugation using Ficoll-Paque PLUS (GE 14 Healthcare, Chicago, IL, USA), washed, and resuspended at a concentration of 2 × 10^6 cells/mL in RPMI-1640 medium containing 10% heat-inactivated FBS. Peripheral blood lymphocytes (PBLs) were selected by the treatment with 1 μg/mL anti-CD3 (clone OKT3) and anti-CD28 (clone CD28.2) human antibodies for 72 h. […]
The alamarBlue assay was performed to assess cell viability in presence of chemical inhibitors. […] The fluorescence of the samples was measured 24 h later using a Spark 10 M Multimode Plate Reader (Tecan, Switzerland) with excitation and emission wavelengths of 535 nm and 590 nm, respectively. For dose–response curve fitting, fluorescence values were normalized according to the following formula:Viability (%) = [(sample mean fluorescence)/(DMSO control mean fluorescence)] ∗ 100
Data are the results of at least five independent experiments analyzed with GraphPad Prism 10 as [inhibitor] vs. normalized response curve (variable slope, after manual outlier removal). […]

Series [6] addresses serotonin 5-HT2A receptor. The settings on record: cited from earlier work.
The test system of series [7] is HEL cells. The experiment in a line: alamarBlue cell viability assay, HEL. The class given is cell-based, human. As to the method:
as §2, §3

The subject of series [8] is HL-60 cells. Put plainly: Annexin V-FITC/7AAD apoptosis/necrosis flow cytometry, HL-60. The settings on record: HL-60, 24 h. The class given is cell-based, human. Here is the method: as §1
In general terms: In flow cytometry, cells or beads pass a laser one at a time.

[9] abbreviates: concentration close to IC50, representative plot.

Turning to `Cc1nc2sccn2c(=O)c1CCN1CCC(=C(c2ccc(F)cc2)c2ccc(F)cc2)CC1` [ritanserin], the “number of pathways affected / significantly downmodulated” value in series [1] is recorded as “more than 500”. Also, the “Early apoptotic (Annexin V+ 7AAD-)” value in series [2] (setting [9]) amounted to 12.2%; in series [8] (setting [9]), 3.3%. In addition, the results for the “Late apoptotic (Annexin+ 7AAD+)” value in series [2] (setting [9]) and in series [8] (setting [9]) were 2.3% and 62.9%, respectively. The entries for the “Live cells (Annexin V- 7AAD-)” value in series [2] (setting [9]) and in series [8] (setting [9]) were 82.5% and 33.8%, respectively. For the same compound, the “Necrotic (Annexin- 7AAD+)” value is on record as 2.9% in series [2] (setting [9]) and 0% in series [8] (setting [9]). For the same compound, the “modality of cell death” value in series [2] (concentration near IC50) is given as “early apoptosis”; in series [8] (concentration near IC50), “late apoptosis”. In addition, the concentration for half-maximal inhibition (IC50) in series [3] (HL-60, 24 h treatment then alamarBlue 24 h) was approximately 38 µM; in series [3] (Homo sapiens, HL-60, 24 h, HL-60, 24 h treatment then alamarBlue 24 h) it was 37.6 ± 1.5 µM; in series [3] (Homo sapiens, HL-60, HL-60, 72 h treatment then alamarBlue 24 h) it was 25.3 ± 0.9 µM; in series [4] (Homo sapiens, K562, 24 h, K562, 24 h treatment then alamarBlue 24 h) it was 70.4 ± 2.2 µM; in series [4] (Homo sapiens, K562, K562, 72 h treatment then alamarBlue 24 h), 42.5 ± 1.8 µM; in series [4] (K562, 24 h treatment then alamarBlue 24 h), approximately 70 µM. Also, the IC50 in series [5] (24 h) was 42.9 ± 1.3 µM; in series [5] (72 h) it was 32.5 ± 1.9 µM; in series [7] (24 h treatment then alamarBlue 24 h), approximately 49 µM; in series [7] (Homo sapiens, 24 h, 24 h treatment then alamarBlue 24 h), 49.2 ± 2 µM; in series [7] (Homo sapiens, 72 h treatment then alamarBlue 24 h) it was 29.6 ± 1 µM. Also, the “cell death of IL-2 stimulated proliferating PBLs” value in series [5] (untransformed PBLs, 50 μM) is listed as “complete cell death”. In addition, the Ki in series [6] is 0.00045 µM.
